Measurements published in PubChem BioAssay (NCI).
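How tested: cells in 96-well plates exposed to compound for 48 hours at five concentrations. GI50 marks 50% less growth. At the TGI there is no net growth.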

Legend:
Test in all cases: growth of human tumour cells (NCI), 48 h
SNB-19 CNS = system: SNB-19 CNS
UACC-62 melanoma = system: UACC-62 melanoma
RPMI-8226 leukemia = system: RPMI-8226 leukemia
SK-MEL-2 melanoma = system: SK-MEL-2 melanoma
SK-MEL-28 melanoma = system: SK-MEL-28 melanoma
HOP-62 NSCLC = system: HOP-62 NSCLC
HCC-2998 colon = system: HCC-2998 colon
SF-295 CNS = system: SF-295 CNS
MDA-MB-435 = system: MDA-MB-435
T-47D breast = system: T-47D breast

SMILES	TGI (SNB-19 CNS) [µM]	TGI (UACC-62 melanoma) [µM]	TGI (RPMI-8226 leukemia) [µM]	TGI (SK-MEL-2 melanoma) [µM]	TGI (SK-MEL-28 melanoma) [µM]	TGI (HOP-62 NSCLC) [µM]	TGI (HCC-2998 colon) [µM]	TGI (SF-295 CNS) [µM]	GI50 (SNB-19 CNS) [µM]	GI50 (UACC-62 melanoma) [µM]	GI50 (RPMI-8226 leukemia) [µM]	GI50 (SK-MEL-2 melanoma) [µM]	GI50 (SK-MEL-28 melanoma) [µM]	GI50 (HOP-62 NSCLC) [µM]	GI50 (HCC-2998 colon) [µM]	GI50 (SF-295 CNS) [µM]	GI50 (MDA-MB-435) [µM]	TGI (MDA-MB-435) [µM]	TGI (T-47D breast) [µM]	GI50 (T-47D breast) [µM]
CCn1cc(/C=C/C(C)c2cn(CC)c(=O)[nH]c2=O)c(=O)[nH]c1=O (centres undefined)	> 100	> 100	> 100	> 100	> 100	> 100	> 100	> 100	–	–	–	–	–	–	–	–	–	–	–	–
COc1cc2c(cc1OC)-c1cc3cc(OC)c(OC)cc3n1CC2	95.8	> 100	> 100	> 100	> 100	> 100	> 100	> 100	–	–	–	–	–	–	–	–	–	–	–	–
CC(=O)c1ccc(NC(=O)CSc2nnc(-c3cc(-c4ccc(C)cc4)nc4ccccc34)o2)cc1	19.3	> 100	> 100	31.2	> 100	5.7	> 100	6.08	3.87	24.2	3.37	12.3	> 100	2.08	> 100	2.18	–	–	–	–
COC1(OC)CC2C=C(S(=O)(=O)c3ccccc3)C1N(Cc1ccccc1)C2=O (centres undefined)	> 100	58.4	–	–	> 100	> 100	> 100	> 100	–	–	–	–	–	–	–	–	–	–	–	–
CC(=O)C1CC=C(C)CC1 (centres undefined)	> 100	> 100	> 100	> 100	> 100	> 100	> 100	> 100	–	–	–	–	–	–	–	–	–	–	–	–
O=C(OCc1ccccc1)N1CCN(/[N+]([O-])=N/Oc2ccc([N+](=O)[O-])cc2[N+](=O)[O-])CC1	35.8	20.8	6.1	57	31.1	28	–	49.4	13.6	6.72	2.23	19.1	13.2	12.3	–	21.5	4.93	19.5	–	–
CN(C)c1ccc(N=Cc2c([O-])ccc3ccccc23)cc1.[C-]#[O+].[C-]#[O+].[Ir]	64.3	35.9	> 100	–	–	> 100	35.3	55	24.8	17.2	23.2	–	–	44.1	18.8	20	–	–	–	–
CCSCC(N)C(=O)O (centres undefined)	> 100	> 100	> 100	> 100	> 100	> 100	–	> 100	–	–	–	–	–	–	–	–	–	> 100	> 100	–
Brc1ccc(-c2nnc(-c3nn(-c4ccccc4)c4nc5ccccc5nc34)o2)cc1	> 100	> 100	> 100	> 100	> 100	> 100	> 100	> 100	–	–	–	–	–	–	–	–	–	–	–	–
O=C1OCC(c2cccs2)=C1Cl	> 100	> 100	> 100	> 100	> 100	> 100	–	> 100	> 100	19.5	32.2	> 100	76.8	> 100	–	80.9	> 100	> 100	> 100	7.47
